Results published in patent publication US12280022B2, “Method of treating major depressive disorder” (Clexio Biosciences Ltd., priority 2018, dated 2025).

How the values were obtained:
[1] = test system: animal models of depression; details: without psychotomimetic side effects and abuse liability; cited from earlier work
[2] = test system: human peripheral blood lymphocytes (HPBL); details: definitive assay; non-activated 4- and 20-hour treatment conditions; any dose
Description: The clastogenic potential of esketamine was evaluated in the in vitro mammalian chromosome aberration test using human peripheral blood lymphocytes (HPBL) in both the absence and presence of an induced metabolic activation system (the 9000 g supernatant [S9] microsomal fraction of liver homogenate from rats exposed to Aroclor-1254).
The study was conducted in 2 phases, with a preliminary toxicity test used to determine the appropriate concentrations for the definitive chromosomal aberration assay. Water was used as a negative (vehicle) control. Toxicity (defined as ≥45% reduction in MI relative to the vehicle control) was evaluated at 9 concentrations, ranging from 0.0238 to 238 μg/ml, after exposure of HPBL to esketamine for 20 hours in the absence of S9 activation, or for 4 hours, either in the presence or absence of S9 activation, followed by a 16-hour recovery period.
The definitive chromosome aberration assay evaluated HPBL cells after exposure to esketamine for 20 hours in the absence of S9 activation, or for 4 hours, either in the presence of absence of S9 activation, followed by a 16-hour recovery. Positive controls for chromosomal aberrations in non-activated and S9-activated evaluations, respectively, consisted of mitomycin C (MMC, 0.6 and 0.3 μg/mL for the 4- and 20-hour exposures, respectively) and cyclophosphamide (CP, 2.5, 5, and 7.5 μg/mL). […]

[3] = test system: male Sprague Dawley rats; assay: 7-day forced swim test; format: in vivo; details: intraperitoneal
Description: Groups of, 6-7 week old, male Sprague Dawley rats were administered esketamine by intraperitoneal injection and their behavioral despair assessed by a forced swim test. The animals, in cohorts of 10, were administered either a single dose of 15 mg/kg esketamine, 7 daily doses of either 7.5 or 15 mg/kg esketamine or a vehicle control, and the test performed 30 minutes after dosing. Statistical evaluation was performed using an ordinary One-Way ANOVA, t Test and an Uncorrected Fisher's LSD comparisons test.

[4] = test system: healthy male and female subjects; assay: Single dose crossover study in healthy volunteers: treatment-emergent adverse events; format: in vivo, human
Text: A total of 128 TEAEs (treatment-emergent adverse event) were reported by 15 of 16 (94%) subjects of which 79 TEAEs reported by 14 of 16 (88%) subjects were to be related to the study drug. Overall, a total of 14 of 128 TEAEs reported by 4 (25%) subjects were of moderate severity and 114 of 128 TEAEs reported by 15 (94%) subjects were of mild severity. […] The most frequently occurring adverse events (reported more than twice) were headache, dizziness, hypokinesia, feeling abnormal, fatigue, euphoric mood inappropriate affect, nausea and hyperhidrosis. Table 4 presents the frequency of the most frequently reported related TEAEs as a percentage of the subjects that experienced an adverse effect per treatment.

[5] = test system: liver of Crl:CD(SD) rats; assay: In vivo single cell gel electrophoresis (comet) assay in liver; details: male and female rats; oral gavage

Compound: CN[C@@]1(c2ccccc2Cl)CCCCC1=O [(R)-ketamine, (2R)-2-(2-Chlorophenyl)-2-(methylamino)cyclohexanone]
- antidepressant effects compared with esketamine [1]: greater potency and longer-lasting antidepressant effects

Compound: CN[C@]1(c2ccccc2Cl)CCCCC1=O [esketamine, (2S)-2-(2-Chlorophenyl)-2-(methylamino)cyclohexanone]
- cytotoxicity (≥45% reduction in mitotic index relative to the vehicle control) [2]: not observed
- antidepressant-like effect of continuous 7-day treatment vs single acute dose at the same dose levels [3]: stronger antidepressant-like effect
- Dizziness, related TEAE, subjects ([4]; 0.3 mg/kg iv): 6%
- Euphoric mood, related TEAE, subjects ([4]; 0.3 mg/kg iv): 19%
- Fatigue, related TEAE, subjects ([4]; 0.3 mg/kg iv): 6%
- Feeling abnormal, related TEAE, subjects ([4]; 0.3 mg/kg iv): 13%
- Headache, related TEAE, subjects ([4]; 0.3 mg/kg iv): 19%
- Hypokinesia, related TEAE, subjects ([4]; 0.3 mg/kg iv): 6%
- Inappropriate affect, related TEAE, subjects ([4]; 0.3 mg/kg iv): 6%
- Nausea, related TEAE, subjects ([4]; 0.3 mg/kg iv): 6%
- Feeling abnormal, related TEAE, subjects ([4]; 20 mg oral solution): 19%
- Headache, related TEAE, subjects ([4]; 20 mg oral solution): 19%
- Inappropriate affect, related TEAE, subjects ([4]; 20 mg oral solution): 6%
- Dizziness, related TEAE, subjects ([4]; 20 mg oral tablet): 13%
- Fatigue, related TEAE, subjects ([4]; 20 mg oral tablet): 7%
- Feeling abnormal, related TEAE, subjects ([4]; 20 mg oral tablet): 7%
- Hyperhidrosis, related TEAE, subjects ([4]; 20 mg oral tablet): 7%
- Dizziness, related TEAE, subjects ([4]; 100 mg oral tablet): 13%
- Euphoric mood, related TEAE, subjects ([4]; 100 mg oral tablet): 13%
- Feeling abnormal, related TEAE, subjects ([4]; 100 mg oral tablet): 20%
- Headache, related TEAE, subjects ([4]; 100 mg oral tablet): 13%
- Hyperhidrosis, related TEAE, subjects ([4]; 100 mg oral tablet): 7%
- Hypokinesia, related TEAE, subjects ([4]; 100 mg oral tablet): 13%
- Inappropriate affect, related TEAE, subjects ([4]; 100 mg oral tablet): 7%
- Nausea, related TEAE, subjects ([4]; 100 mg oral tablet): 20%
- AE leading to withdrawal from the study ([4]; one subject (Subject 11) of 16, after first treatment period): mild hyperbilirubinemia
- DNA strand breaks in the liver [5]: evidence of causing an increase in DNA strand breaks
